# Measurements as given in publication PMC10363480 (Plant Communications, 2023).
# “And” between values parts separate entries of the source, which are not always exact repeats. Equal values may be shown once. “Also recorded” adds a separate entry of the source.
# Tests used:
# Assay type in all cases: cell-based
# [1] = system: mitochondria or chloroplast of Chlamydomonas reinhardtii; test: Subcellular localization of Venus reporter by epifluorescence microscopy (manual targeting assignment)
# Summary of the method: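 Targeting peptide variants fused to Venus reporter, transformed into Chlamydomonas wild-type T222+ (CC-5101); three independent transformant lines per construct. Localization assigned manually from epifluorescence images using chlorophyll autofluorescence for chloroplast and 0.1 μM MitoTracker Red CMXRos (30 min) for mitochondria. Automated segmentation used for validation.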
# [2] = system: mitochondria or chloroplast of Chlamydomonas reinhardtii; test: Automated image segmentation / quantification of Venus signal (pyrenoid/chlorophyll, mitochondria/cell); conditions: image 1, 3 channels, Cation K, strain 2
# Text: A custom ImageJ Macro was written to enable automated image segmentation of epifluorescence micrographs in Fiji. In brief, in a given micrograph, fluorescence intensities were normalized, and individual cells were detected using marker-controlled watershed from the MorphoLibJ library ([Legland et al., 2016]). For each cell, auto-thresholding the chlorophyll channel using the Huang method was used to generate a chlorophyll mask. Separately, the chlorophyll channel was subjected to a series of morphological filters and Gaussian blurring followed by auto-thresholding to finally detect round holes between 0.1 and 5 μm within the ensuing binary image to be saved as a pyrenoid mask. In MitoTracker images, the MitoTracker channel was subjected to morphological filtering followed by auto-thresholding with Otsu to generate a mitochondrial mask. Venus channel intensities were recorded for each compartment. For each cell, rotated images containing binary masks as extra channels were saved. Data were compiled, analyzed, and plotted in R v.3.6.1 (https://www.r-project.org/) using RStudio 2022.07.2+576 (https://www.rstudio.com/).
# Automated Image Analysis corroborates targeting
# To assess subcellular Venus localisation independently of our manual targeting assignment, 2202 3-channel images containing Venus, chlorophyll and brightfield channels, and 557 4-channel images containing an additional MitoTracker channel, were subjected to automated, quantitative […]
# image analysis (Fig. S2).
# In the absence of Venus, low chlorophyll autofluorescence is visible in the Venus channel; in the absence of a presequence, Venus accumulates in the cytoplasm, targeting neither to the mitochondria nor to the chloroplast. When equipped with the chimeric B15Kc presequence, Venus […]
# previously using confocal microscopy and biochemistry on isolated organelles (Garrido et al., When targeted to the chloroplast, Venus not only colocalizes with chlorophyll but also accumulates within the pyrenoid. The pyrenoid can be detected as a region of lower chlorophyll fluorescence at the base of the cup-shaped chloroplast, as visualized in Fig. S2B where the pyrenoid is labelled fluorescently using an RBCS-Venus fusion protein. Given that chlorophyll autofluorescence renders colocalization of Venus channel signal with the chlorophyll channel potentially misleading in constructs with low Venus accumulation, we chose to focus on evaluating Venus signal within the pyrenoid for automated image segmentation (Fig. S2C inset). Rather than comparing pyrenoidal Venus to the entire cell, we opted for a comparison with Venus in the rest of the chloroplast excluding the pyrenoid (the chlorophyll region), since strong Venus channel signal from within the pyrenoid should generate high values for a pyrenoid/chlorophyll ratio when Venus is in the chloroplast and low values when Venus is elsewhere. This approach was able to separate chloroplast-targeting constructs very effectively from constructs where Venus localized elsewhere in the cell (Fig. S2C). Only a small region of overlap between the two categories remains (highlighted in blue). Among constructs targeting elsewhere, constructs found in this overlap region typically show low Venus accumulation, e.g. the no-Venus control falls also falls in this region (black diamond). […]
# [3] = system: Escherichia coli strain BW25113; test: Minimum inhibitory concentration / antimicrobial activity growth assay; conditions: growth assay with dilutions of the AMP, Escherichia coli strain BW25113, Figure 3D
sequence,measurement,setting,value
"ALWMTLLKKVLKAAAKAALNAVLVGANA [DS4, dermaseptin S4, HA-RAMP antimicrobial peptide]",chloroplast targeting when combining cTP-N with cTP-C (^cP^c),"[1]; Figure 2, bare name = K and R versions",failed to show any chloroplast targeting; also recorded: fail to target the chloroplast
same,Targeting,"[1]; manual assignment printed per cell line of Table S3, Fig.S 7 panel a, Nter sans, Cation K, Cter sans, pODC 82, colony 16, strain 2",none
same,Venus.ratio_pyr,"[2]; Venus channel signal in the pyrenoid relative to the chlorophyll region, single-cell values, no TP elements",0.9978 and 0.9365
same,Venus.ratio_pyr.norm,"[2]; normalized so that construct averages range from 0 to 1, single-cell values, no TP elements",0.09363
same,Venus.ratio_cp,"[2]; single-cell values (Cell 0, 1, 10, 11, 12), Nter sans, Cter sans",1.038 and 1.1 and 1.124 and 1.055 and 1.047
same,"minimum inhibitory concentration after replacing all Ks with Rs, compared with the natively K-rich sequence",[3],increased
